From a melting point compilation (Tetko et al.; mined from patent text by program, amines drawn as free bases though some values may be those of a salt)

With `Cc1ccc(-c2nc(C)cc(Cl)n2)cc1` as the molecule, how does the melting point read?
The melting point was 103 to 104 °C.

For `O=C(O)CN1C(=O)C(=CC2CCCCC2)SC1=S`, which melting point is on record?
The melting point was 191 to 193 °C.

Which melting point does the source give for `Cc1c(CO)c2ccc(OCCCN3CCN(Cc4ccc(Cl)cc4)CC3)cc2oc1=O` here?
The melting point was 135 °C.

With `Cc1cc(=O)n(CCCN2CCC(c3c[nH]c4ccccc34)CC2)c2ccccc12` as the molecule, how does the melting point read?
Its melting point is 74 to 77 °C.

For `COc1cc(Nc2nccc(-c3ccc(OCc4ccccc4)cc3)n2)cc(OC)c1OC`, which melting point is on record?
The melting point was 171 to 172 °C.

Which melting point does the source give for `COc1cc(-n2c(-c3ccc(SC)cc3)nc(SC)c(C#N)c2=O)cc(OC)c1OC` here?
The melting point was 192 to 195 °C.

For `CC(=O)c1cc(-c2cccc(Cl)c2)ccc1N`, which melting point is on record?
The melting point was 89 to 90 °C.

With `COc1cccc(COCc2cccc(OC)c2OC)c1OC` as the molecule, how does the melting point read?
The melting point was 58 to 60 °C.

With `CCCCCCCCc1nc2c(N)nc3ccccc3c2n1CCOCCCc1ccccc1` as the molecule, how does the melting point read?
The melting point was 104 °C.

With `O=C1C2=C(Nc3ccccc3C2)c2ccccc21` as the molecule, how does the melting point read?
Its melting point is greater than 300 °C.

For `CCCCc1nc(Cc2ccc(-c3ccccc3C(=O)O)cc2)c(CC(=O)O)c(Cc2ccc(-c3ccccc3C(=O)O)cc2)n1`, which melting point is on record?
Its melting point is 160 °C.

Which melting point does the source give for `CC1CC(=Cc2ccccc2OCC(O)CN2CCC(c3ccc4ccccc4c3)CC2)C(=O)O1` (configuration not stated) here?
The melting point was 142 to 144 °C.

Which melting point does the source give for `CCSc1ccccc1N1CCN([C@@H]2Cc3c(OC)ccc(OC)c3C[C@H]2O)CC1` (relative stereo) here?
Its melting point is 171 to 173 °C.

Which melting point does the source give for `CN(C)C(=O)c1cc(C(C)(C)C)c(O)c(C(C)(C)C)c1` here?
The melting point was 173 to 174 °C.

For `CCCn1c(=O)c2[nH]c(C(CO)Cc3ccccc3)nc2n(CCC)c1=O` (configuration not stated), which melting point is on record?
Its melting point is 145 to 146 °C.

For `CCOC(=O)CCCCC(c1ccc(C)s1)N(O)C(N)=O` (configuration not stated), which melting point is on record?
Its melting point is 106 to 107 °C.

Which melting point does the source give for `O=C(O)CCCNC(=O)c1ccccc1NC(=O)c1ccccc1O` here?
The melting point was 173 to 174 °C.

With `N#Cc1c(N2CCN(C(=O)c3cccs3)CC2)c2sccc2n(Cc2ccc(F)cc2)c1=O` as the molecule, how does the melting point read?
Its melting point is 286 °C.

With `CC(Br)C(=O)c1ccc(O)cc1` (configuration not stated) as the molecule, how does the melting point read?
Its melting point is 95 to 97 °C.

Which melting point does the source give for `CC(=O)SCC(Cc1ccccc1)C(=O)Nc1cc(Cl)ccc1C(=O)O` (configuration not stated) here?
The melting point was 143 to 144 °C.

For `Cc1nc2n(n1)C(N1CCN(C)CC1)=Nc1ccccc1C2`, which melting point is on record?
Its melting point is 185 to 187 °C.

With `Nc1cc(-n2cccc2)ccc1Nc1cccc(-c2cncnc2)c1` as the molecule, how does the melting point read?
The melting point was 190 to 192 °C.

For `COc1cc(-c2ccc(N)nn2)ccc1OC(F)F`, which melting point is on record?
Its melting point is 184 °C.

For `CC(C)(C)OOC(C)(CCC(=O)NNC(=O)c1ccccc1)OOC(C)(C)C`, which melting point is on record?
The melting point was 147 to 149 °C.

For `CN1C(=O)[C@H](NC(=O)CCCc2cccs2)N=C(c2ccccc2)c2ccccc21`, which melting point is on record?
Its melting point is 170 to 180 °C.

Which melting point does the source give for `CN(C)n1nnc2cc3c(cc2c1=O)OC1CCCN1C3=O` (configuration not stated) here?
Its melting point is 180 °C.

With `Cn1cc(C(=O)NCc2ccc(Cl)cc2)c(=O)c2cc(CN3CCOCC3)cc(C#CCCCO)c21` as the molecule, how does the melting point read?
Its melting point is 179 to 182 °C.

Which melting point does the source give for `CN1CCN(CC(=O)N2CC=C(c3cccc(C(F)(F)F)c3)n3ncc(C#N)c32)CC1` here?
The melting point was 178 to 180 °C.

Which melting point does the source give for `COC1OCC[C@@H]1NC(=O)[C@H](CC(C)C)NC(=O)Nc1cccc2ccccc12` (some centres not stated) here?
Its melting point is 184 to 185 °C.

With `O=C(NCSc1ncnc2nc[nH]c12)c1ccccc1` as the molecule, how does the melting point read?
Its melting point is 197 to 200 °C.

For `Cc1ccc(C)c(-c2cn(C)cc(-c3ccccc3)c2=O)c1`, which melting point is on record?
The melting point was 188 to 190 °C.

With `C=CCCCCCCCCC(=O)N1CCN(c2cc(N)nc(N)n2)CC1` as the molecule, how does the melting point read?
The melting point was 100 to 104 °C.

With `COc1cccc2c1C(=O)c1ccccc1C2(CC(=O)O)CC(=O)O` as the molecule, how does the melting point read?
Its melting point is 239 to 243 °C.

Which melting point does the source give for `COc1ccc(C(O)COc2ccc(C(=O)O)c(O)c2)cc1C12CC3CC(CC(C3)C1)C2` (configuration not stated) here?
The melting point was 178 to 179 °C.

Which melting point does the source give for `COc1ccc([C@@H]2SC(c3ccccc3)=C(C)N(CCN(C)C)C(=O)[C@H]2O)cc1` (relative stereo) here?
The melting point was 132 to 133 °C.

With `CS(=O)(=O)Nc1nc(CCCN2CCN(C(c3ccccc3)c3ccccc3)CC2)cs1` as the molecule, how does the melting point read?
Its melting point is 181 to 183 °C.

Which melting point does the source give for `COc1cc(C(=O)N2Cc3ccc(C(=O)NCc4ccc5c(c4)OCCO5)n3Cc3ccccc32)ccc1-c1ccccc1C` here?
The melting point was 153 to 155 °C.
